Assay results from patent US4087432A, “1H-imidazo(4,5-b)pyridine compounds” (Eli Lilly and Company, priority 1975, dated 1978).

How the values were obtained:
Pigweed [1] = test: Postemergent injury rating, pigweed; format: in vivo, rough pigweed; set-up: key: injury rating scale, 4 = death; settings: 8 lbs/acre
Protocol: (§1) Various of the compounds to be employed as active agent in accordance with the present invention were evaluated for preemergent application to various species of plants. In this evaluation, a soil was prepared consisting of one part masonry sand and one part shredded top soil blended together in a cement mixer. One gallon of this soil was placed in a 25 × 35 cm. galvanized flat and was patted down with a bench brush until level. A three-row marker was used to make 21/2 cm. deep furrows in approximately two-fifths of the flat. Crop seeds consisting of four kernels of corn, five cotton seeds and five soybean seeds were placed in these furrows. A four-row template was then placed on the remaining soil and the indicated approximate numbers of each of the following seeds were planted, one species to each section: foxtail (millet), 80-100 seeds; velvetleaf (40-50 seeds); rough pigweed (150-250 seeds); and large crabgrass (100-150 seeds).
(§2) Sufficient soil was added to cover the entire flat. Thus, the weed seeds were covered to a depth of about 6 mm. and the crop seeds were covered to a depth of about 3 cm.
(§3) In assaying the effect of the composition as preemergent herbicides, a flat prepared as above, taken either on the day of planting or on the next day, was placed in a chamber equipped with a turntable and an air exhaust. The herbicidal composition, either a spray-type emulsion or a wettable powder, was applied to the flat with a modified DeVilbiss atomizer hooked to an air source. Twelve and one-half milliliters of the composition under test were applied to each flat either on the day of planting or the succeeding day. Injury ratings and observations as to type of injury were made eleven to twelve days after treatment. The injury rating scale used was as follows:
(§4) 4--death When more than one determination was carried out at a given rate, an average value was calculated for the injury rating. Each compound evaluated was formulated as a spray by one of the following procedures. In one method the particular compound was wetted by grinding in a mortar with one part of polyoxyethylene sorbitan monolaurate. Five hundred parts of water were added slowly to the resultant creamy paste to give an aqueous dispersion with a surfactant concentration of 0.2 percent. This dispersion was entirely satisfactory for spray application. In a second procedure the compound was dissolved in one volume of acetone, and the acetone solution was diluted with nineteen volumes of water containing 0.1 percent of polyoxyethylene sorbitan monolaurate.
(§5) Representative compounds of the present invention were evaluated for postemergent application to plants including corn and several weed species. The evaluation was carried out in accordance with the procedures of Examples 49-52 except that the test solutions were applied about 9-12 days after the preparation and seeding of the flats.

Velvet Leaf [2] = test: Postemergent injury rating, velvetleaf; format: in vivo; settings: 8 lbs/acre
Protocol: as §1, §2, §3, §4, §5

Corn [3] = test: Postemergent injury rating, corn; format: in vivo; set-up: key: injury rating scale, 4 = death; settings: 8 lbs/acre
Protocol: as §1, §2, §3, §4, §5

Crabgrass = test: Postemergent injury rating, crabgrass; format: in vivo, large crabgrass; set-up: key: injury rating scale, 4 = death; settings: 8 lbs/acre
Protocol: as §1, §2, §3, §4, §5

Foxtail = test: Postemergent injury rating, foxtail; format: in vivo, foxtail (millet); set-up: key: injury rating scale, 4 = death; settings: 8 lbs/acre
Protocol: as §1, §2, §3, §4, §5

Johnson Grass = test: General herbicidal effect alone/in combination, Johnson grass; format: in vivo; settings: alone
Protocol: as §1, §2, §3, §4
(§6) 6-Chloro-1-hydroxy-2-(trifluoromethyl)-1H-imidazo(4,5-b)pyridine was evaluated in combination with 2-chloro-4-ethylamino-6-isopropylamino-s-triazine and separately in combination with 2-chloro-2',6'-diethyl-N-(methoxymethyl)acetanilide for the control of plants. The evaluations were conducted as described in Examples 49-52, except that the rates of compound differed and the species were different. General herbicidal effect was rated on a scale of 0-10, with 0 = no injury and 10 = death. Observations were also made for the following other specific phytotoxic effects.

Rice = test: General herbicidal effect alone/in combination, rice; format: in vivo; settings: alone
Protocol: as §1, §2, §3, §4, §6

Sorghum = test: General herbicidal effect alone/in combination, sorghum; format: in vivo; settings: alone
Protocol: as §1, §2, §3, §4, §6

Pigweed [4] = test: General herbicidal effect alone/in combination, pigweed; format: in vivo; settings: alone
Protocol: as §1, §2, §3, §4, §6

Corn [5] = test: General herbicidal effect alone/in combination, corn (second Corn column); format: in vivo; settings: alone
Protocol: as §1, §2, §3, §4, §6

Foxtail Millet = test: General herbicidal effect alone/in combination, foxtail millet; format: in vivo; settings: alone
Protocol: as §1, §2, §3, §4, §6

Jimsonweed = test: General herbicidal effect alone/in combination, jimsonweed; format: in vivo; settings: alone
Protocol: as §1, §2, §3, §4, §6

Ragweed = test: General herbicidal effect alone/in combination, ragweed; format: in vivo; settings: alone
Protocol: as §1, §2, §3, §4, §6

Morning glory = test: General herbicidal effect alone/in combination, morning glory; format: in vivo; settings: alone
Protocol: as §1, §2, §3, §4, §6

Barnyard Grass = test: General herbicidal effect alone/in combination, barnyard grass; format: in vivo; settings: alone
Protocol: as §1, §2, §3, §4, §6

Large Crabgrass = test: General herbicidal effect alone/in combination, large crabgrass; format: in vivo; settings: alone
Protocol: as §1, §2, §3, §4, §6

Velvet Leaf [6] = test: General herbicidal effect alone/in combination, velvetleaf; format: in vivo; settings: alone
Protocol: as §1, §2, §3, §4, §6

Lambs Quarter = test: General herbicidal effect alone/in combination, lambsquarter; format: in vivo; settings: alone
Protocol: as §1, §2, §3, §4, §6

Corn [7] = test: General herbicidal effect alone/in combination, corn (first Corn column); format: in vivo; settings: alone
Protocol: as §1, §2, §3, §4, §6

Cc1cnc2nc(C(F)(F)F)n(O)c2c1 [6-methyl-1-hydroxy-2-(trifluoromethyl)-1H-imidazo(4,5-b)pyridine]
Injury Rating, Pigweed (Pigweed [1]): 3 | Injury Rating, Velvet Leaf (Velvet Leaf [2]): 1 | Injury Rating, Corn (Corn [3]): 1 | Injury Rating, Crabgrass (Crabgrass): 3 | Injury Rating, Foxtail (Foxtail): 3

CCNc1nc(Cl)nc(NC(C)C)n1 [B, 2-chloro-4-ethylamino-6-isopropylamino-s-triazine]
herbicidal effect, Johnson Grass (Johnson Grass; 0.25 lbs/A): 3S | herbicidal effect, Johnson Grass (Johnson Grass; 0.5 lbs/A): 0 | herbicidal effect, Johnson Grass (Johnson Grass; 1.0 lbs/A): 0 | herbicidal effect, Johnson Grass (Johnson Grass; 2.0 lbs/A): 2S | herbicidal effect, Rice (Rice; 0.25 lbs/A): 4B | herbicidal effect, Rice (Rice; 0.5 lbs/A): 4B | herbicidal effect, Rice (Rice; 1.0 lbs/A): 7B | herbicidal effect, Rice (Rice; 2.0 lbs/A): 8B | herbicidal effect, Sorghum (Sorghum; 0.25 lbs/A): 0 | herbicidal effect, Sorghum (Sorghum; 0.5 lbs/A): 0 | herbicidal effect, Sorghum (Sorghum; 1.0 lbs/A): 1B | herbicidal effect, Sorghum (Sorghum; 2.0 lbs/A): 2B | herbicidal effect, Pigweed (Pigweed [4]; 0.25 lbs/A): 9BS | herbicidal effect, Pigweed (Pigweed [4]; 0.5 lbs/A): 10D | herbicidal effect, Pigweed (Pigweed [4]; 1.0 lbs/A): 10D | herbicidal effect, Pigweed (Pigweed [4]; 2.0 lbs/A): 10D | herbicidal effect, Corn (Corn [5]; 0.25 lbs/A): 0 | herbicidal effect, Corn (Corn [5]; 0.5 lbs/A): 0 | herbicidal effect, Corn (Corn [5]; 1.0 lbs/A): 0 | herbicidal effect, Corn (Corn [5]; 2.0 lbs/A): 0 | herbicidal effect, Foxtail Millet (Foxtail Millet; 0.25 lbs/A): 0 | herbicidal effect, Foxtail Millet (Foxtail Millet; 0.5 lbs/A): 0 | herbicidal effect, Foxtail Millet (Foxtail Millet; 1.0 lbs/A): 4SB | herbicidal effect, Foxtail Millet (Foxtail Millet; 2.0 lbs/A): 5SB | herbicidal effect, Jimsonweed (Jimsonweed; 0.25 lbs/A): 9BS | herbicidal effect, Jimsonweed (Jimsonweed; 0.5 lbs/A): 9BS | herbicidal effect, Jimsonweed (Jimsonweed; 1.0 lbs/A): 9BS | herbicidal effect, Jimsonweed (Jimsonweed; 2.0 lbs/A): 9BS | herbicidal effect, Ragweed (Ragweed; 0.25 lbs/A): 5S | herbicidal effect, Ragweed (Ragweed; 0.5 lbs/A): 7SB | herbicidal effect, Ragweed (Ragweed; 1.0 lbs/A): 8BS | herbicidal effect, Ragweed (Ragweed; 2.0 lbs/A): 10D | herbicidal effect, Morning glory (Morning glory; 0.25 lbs/A): 8BS | herbicidal effect, Morning glory (Morning glory; 0.5 lbs/A): 9BS | herbicidal effect, Morning glory (Morning glory; 1.0 lbs/A): 10D | herbicidal effect, Morning glory (Morning glory; 2.0 lbs/A): 10D | herbicidal effect, Barnyard Grass (Barnyard Grass; 0.25 lbs/A): 2S | herbicidal effect, Barnyard Grass (Barnyard Grass; 0.5 lbs/A): 5SB | herbicidal effect, Barnyard Grass (Barnyard Grass; 1.0 lbs/A): 4SB | herbicidal effect, Barnyard Grass (Barnyard Grass; 2.0 lbs/A): 8BS | herbicidal effect, Large Crabgrass (Large Crabgrass; 0.25 lbs/A): 0 | herbicidal effect, Large Crabgrass (Large Crabgrass; 0.5 lbs/A): 2S | herbicidal effect, Large Crabgrass (Large Crabgrass; 1.0 lbs/A): 5S | herbicidal effect, Large Crabgrass (Large Crabgrass; 2.0 lbs/A): 6BS | herbicidal effect, Velvet leaf (Velvet Leaf [6]; 0.25 lbs/A): 3S | herbicidal effect, Velvet leaf (Velvet Leaf [6]; 0.5 lbs/A): 3S | herbicidal effect, Velvet leaf (Velvet Leaf [6]; 1.0 lbs/A): 7BS | herbicidal effect, Velvet leaf (Velvet Leaf [6]; 2.0 lbs/A): 10D | herbicidal effect, Lambs Quarter (Lambs Quarter; 0.25 lbs/A): 9BS | herbicidal effect, Lambs Quarter (Lambs Quarter; 0.5 lbs/A): 9BS | herbicidal effect, Lambs Quarter (Lambs Quarter; 1.0 lbs/A): 9.5BS | herbicidal effect, Lambs Quarter (Lambs Quarter; 2.0 lbs/A): 9.5BS | herbicidal effect, Corn (Corn [7]; 0.25 lbs/A): 0 | herbicidal effect, Corn (Corn [7]; 0.5 lbs/A): 0 | herbicidal effect, Corn (Corn [7]; 1.0 lbs/A): 0 | herbicidal effect, Corn (Corn [7]; 2.0 lbs/A): 0

Nc1c(Br)nc2nc(C(F)(F)F)n(O)c2c1Br [5,7-dibromo-6-amino-1-hydroxy-2-(trifluoromethyl)-1H-imidazo(4,5-b)pyridine]
Injury Rating, Pigweed (Pigweed [1]): 3 | Injury Rating, Velvet Leaf (Velvet Leaf [2]): 2 | Injury Rating, Corn (Corn [3]): 1 | Injury Rating, Crabgrass (Crabgrass): 3 | Injury Rating, Foxtail (Foxtail): 3
